Assay: Antagonist activity at CXCR4 in human CCRF-CEM cells assessed as inhibition of CXCL12-induced CXCR4+ cell migration pre-incubated for 10 mins before CXCL12 addition and measured after 2.5 hrs by flow cytometric analysis

Cc1cc(NC2CCN(C(=O)CCNCC(=O)O)CC2)nc(NCc2cn(CCCNCCCNC3CCCCC3)nn2)n1
EC50: 14 nM

Reference: BindingDB's records for doi:10.1021/acs.jmedchem.7b01322 (National Health Research Institutes, 2018)
